Assay results as given in patent US5270472A, “Alkanoyl L-carnitine amides with aminoacids and pharmaceutical compositions containing same for promoting regeneration of the nervous tissue, inhibiting neuronal degeneration, enhancing the process of learning and memory and for the treatment of coma” (Sigma-Tau Industrie Farmaceutiche Riunite S.p.A., priority 1991, dated 1993).
Where a name gives a salt, the structure may show the parent alone.

Experiments:
[1] = system: choline acetyltransferase (ChAT); assay: Choline acetyltransferase (ChAT) activity in PC 12 cells; format: cell-based, rat; conditions: 1 mM, 6 days
Experimental: (§1) Rat pheochromocytoma ((PC 12) cells were grown in RPMI 1640, supplemented with 5% heat inactivated horse serum +5% heat inactivated fetal calf serum at 37° C. in humidified incubator with 5% CO2 atmosphere and fed on alternate days. At subconfluency, cells were dislodged by vigorous shaking and reseeded at 1:1 ratio. Acetyl L-carnitine ALCAR® and ST 857 were dissolved in RPMI and added to cells at the final concentrations indicated in the various experiments.
The method described by Fonnum, F. in "A rapid radiochemical method for the determination of choline acetyltransferase". J. of Neurochem. (1975) vol. 24, 407:409 was used. Briefly, the compounds were added to the culture medium at final concentration of 1 mM.
The cells were grown for 6 days in the presence of ST 857. The medium was changed every other day. On the sixth day the cells were harvested and resuspended directly in a homogenization buffer for ChAT activity assay. Protein content was assayed on an aliquot of the cell suspensions.

Tolerability, LD50 = conditions: mouse, in vivo, mice
Experimental: In mice, LD50 orally is higher than 2 g/kg; LD50 intraperitoneally is higher than 600 mg/kg.

NGFR mRNA = NGFR mRNA in HCN-1A cells; format: cell-based, human; conditions: following ST 857 treatment
Text: (§2) The HCN-1A cells are a non-tumoral cell line derived from human cortical neuroblasts which respond to NGF by differentiating into bipolar or multipolar neurite-bearing neurons.

HCN-1A cells = assay: Effect on cultured human cortical cell line (HCN-1A); format: cell-based
Text: as §2
HCN-1A cells show immunoreactivity for different neurotransmitters such as GABA, glutamate, somatostatin, cholccystokinin-8 […] and VIP (vasoactive intestinal polypeptide).

[2] = Tolerability, intraperitoneal or oral; format: in vivo
PC 12 cells = assay: Neurite outgrowth experiment; format: cell-based, rat
Experimental: The rat pheochromocytoma (PC 12) cell line was chosen as an in vitro model system for NGF-responsive neurons. PC 12 cells are a cell line derived from a tumor of rat adrenal medulla that display NGFR similar to those described for sympathetic and sensory neurons, PC 12 typically respond to NGF by elongating neurites and developing into electrically excitable cells featuring some characteristics of the post-mitotic cholinergic neuronal phenotype.
as §1
PC 12 cells were plated out into 35 mm Petri dishes at a density 2×10^5 cells/ml. On the sixth day of either ALCAR® or ST 857 treatment (1 mM), the cells were added with NGF dissolved in RPMI 1640 at a suboptimal concentration (i.e. ineffective to stimulate neurite outgrowth) of 1 ng/mL (0.037 nM). On day 5 after addition, 100-120 cells from 5-12 randomly chosen microscope fields were counted and assayed for presence of neurities. […]

[3] = in the presence of NGF (10 ng/mL)

Row | SMILES | ChAT activity ([1]; in the absence of NGF) | ChAT activity [1, 3] | LD50 (Tolerability, LD50; ip, intraperitoneally) | LD50 (Tolerability, LD50; po, orally) | NGFR mRNA (NGFR mRNA) | neurite outgrowth and cell differentiation (HCN-1A cells; 1 mM) | GABA immunoreactivity and formation of functional synapses (HCN-1A cells; in the presence and in the absence of NGF (10 ng/ml)) | tolerability [2] | enhancement of the action of NGF on PC 12 cells (PC 12 cells; compared with ALCAR® treatment) | stimulation of neurite outgrowth (in words) (PC 12 cells; in the absence of NGF)
1 | CC(=O)O[C@H](CC(=O)[O-])C[N+](C)(C)C [ACETYL L-CARNITINE, acetyl L-carnitine, reference compound] | 33.3 ± 4.2 nmoli ACh/mg/hour | 133.3 ± 4.4 nmoli ACh/mg/hour | – | – | – | – | – | – | – | –
2 | CC(=O)O[C@H](CC(=O)N[C@@H](CCCNC(=N)N)C(=O)O)C[N+](C)(C)C [ST 857, L-acetyl L-carnitinamide of L-arginine chloride hydrochloride] | 46.6 ± 2.5 nmoli ACh/mg/hour | 140.0 ± 8.9 nmoli ACh/mg/hour | > 600 mg/kg | > 2000 mg/kg | increased in these cells following ST 857 treatment, in a manner similar to that elicited by NGF | resulted in neurite outgrowth and cell differentiation toward the neuronal phenotype | induced also GABA immunoreactivity in HCN-1A and formation of functional synapses | well tolerated | enhanced by ST 857 treatment more potently than by ALCAR® treatment | effective in stimulating neurite outgrowth, even in the absence of NGF
